Tested on: CC‐sACE
Experiment: Aβ(4–10)Y hydrolysis by CC‐sACE, fluorogenic assay
Type: biochemical, human
Conditions: fluorescence λex 320 nm, λem 420 nm, Hepes pH 7.5 buffer as for Aβ(4–10)Q, 5 min time point, enzyme 0.071 pmol, n = 3
Description: Fluorogenic substrates designed around the established N‐terminal Asp7‐Ser8 cleavage site of the full‐length Aβ(1–42) were used to develop a higher throughput assay. There are two variations of the short fluorogenic peptides: Aβ(4–10)Q (Abz‐FRHDSG(Q)‐EDDnp) which has an N‐terminal Abz donor and a C‐terminal EDDnp quencher group attached to an additional Gln residue. The second peptide, Aβ(4–10)Y (Abz‐FRHDSG‐(NT)) has a different quencher molecule, NT, which substitutes for the naturally occurring Tyr residue.
An alternative fluorogenic peptide, Abz‐FRHDSG‐(NT) (BIOPEP™ South Africa) was assayed, with 100 μL enzyme and 100 μL substrate (at a final enzyme concentration within 10% hydrolysis of total substrate; see Table 3) as above, in 96‐well plates. The samples were read at the 5 min time point on a Cary Eclipse spectrofluorimeter (Varian Inc.) at λex = 320 nm and λem = 420 nm. Kinetic constants, inner filter effect and standard curves were calculated as above.
Statistical analysis of the data was determined by Student's t test. Differences with P < 0.05 were considered statistically significant. Fractional error was calculated for the k cat/K m ratio with the following equation: ΔZ=ZΔa/a^2+Δb/b^2 where Z represents the mean k cat/K m and ΔZ represents the fractional error. The Δa represents the SEM of the mean k cat (a). Similarly, Δb represents the SEM of the mean K m (b).

Chain of CC‐sACE (P12821 643-1222 limits assumed): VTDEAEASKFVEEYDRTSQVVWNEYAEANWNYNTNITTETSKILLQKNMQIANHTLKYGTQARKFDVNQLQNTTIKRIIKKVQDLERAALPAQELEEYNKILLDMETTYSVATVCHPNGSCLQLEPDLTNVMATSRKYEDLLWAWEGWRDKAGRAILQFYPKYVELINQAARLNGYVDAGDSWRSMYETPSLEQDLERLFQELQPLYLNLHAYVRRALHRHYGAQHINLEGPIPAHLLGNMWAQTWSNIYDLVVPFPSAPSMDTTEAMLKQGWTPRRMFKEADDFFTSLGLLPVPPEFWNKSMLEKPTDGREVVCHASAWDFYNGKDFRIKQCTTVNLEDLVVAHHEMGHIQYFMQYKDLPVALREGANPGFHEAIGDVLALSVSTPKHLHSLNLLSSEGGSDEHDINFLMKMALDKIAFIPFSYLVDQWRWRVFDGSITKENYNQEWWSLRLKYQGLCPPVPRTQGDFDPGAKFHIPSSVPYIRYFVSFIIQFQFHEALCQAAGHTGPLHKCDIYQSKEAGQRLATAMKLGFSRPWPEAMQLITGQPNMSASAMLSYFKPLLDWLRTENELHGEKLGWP

Substance: Abz‐FRHDSG‐(NT) [Aβ(4–10)Y, fluorogenic Aβ(4–10) peptide with NT quencher substituting for Tyr]
- K m (mean ± SEM): 20.30 ± 2.55 µM
- V max (mean ± SEM): 0.90 ± 0.08
- k cat (mean ± SEM): 12.70 ± 1.16 s⁻¹
- k cat/K m (mean ± fractional error of the ratio): 6.33 ± 0.98 M^−1·s^−1 × 10^5

— article PMC4950319, “Kinetic and structural characterization of amyloid‐β peptide hydrolysis by human angiotensin‐1‐converting enzyme” (The Febs Journal, 2016)
